Results: PubChem BioAssay AID1259407 (Chemical Carcinogenesis Research Information System (CCRIS), 2018)
The source made the active and inactive calls. No rule for the calls is given here.

Tested on: CCRIS mutagenicity, Ames/micronucleus/aberration tests
Assay: CCRIS mutagenicity studies
[1] = Test System: AMES SALMONELLA TYPHIMURIUM, Strain/Indicator: TA1535, Metabolic Activation: NONE, Method: STANDARD PLATE
[2] = Test System: AMES SALMONELLA TYPHIMURIUM, Strain/Indicator: TA1538, Metabolic Activation: NONE, Method: STANDARD PLATE

## CCOP(=S)(OCC)SCCSCC
End Point: In vivo micronucleus, Test System: Micronucleated polychromatic erythrocytes, Species: Mouse, Strain/Sex: Hsd/Win: NMRI/Male and female, Route: Intraperitoneal
  mutagenic call: active; positive at 24 and 48 hr compared with the concurrent control, but equivocal com
[1]
  mutagenic call: active; positive
Test System: AMES SALMONELLA TYPHIMURIUM, Strain/Indicator: TA1535, Metabolic Activation: S-9 MIX, Method: STANDARD PLATE
  mutagenic call: active; positive
Test System: E. coli polA test, Strain/Indicator: (K12)p3478/W3110, Metabolic Activation: None, Method: Plate test with 24 hr exposure
  mutagenic call: inactive; negative
Test System: E. coli polA test, Strain/Indicator: (K12)p3478/W3110, Metabolic Activation: S-9, Method: Plate test with 24 hr exposure
  mutagenic call: inactive; negative
Test System: UDS HUMAN FIBROBLASTS, Strain/Indicator: THY INCORP (NON-S-PHASE), Metabolic Activation: NONE, Method: LIQUID SCINTILLATION COUNTING
  mutagenic call: active; positive

## COc1cc2c(c3oc4cccc(O)c4c(=O)c13)[C@@H]1CCO[C@@H]1O2
Test System: AMES SALMONELLA TYPHIMURIUM, Strain/Indicator: TA98, Metabolic Activation: RAT, LIVER, S-9, PHENOBARBITAL, Method: STANDARD PLATE
  mutagenic call: inactive; negative
Test System: AMES SALMONELLA TYPHIMURIUM, Strain/Indicator: TA100, Metabolic Activation: RAT, LIVER, S-9, PHENOBARBITAL, Method: STANDARD PLATE
  mutagenic call: inactive; negative

## CCCN(CC(C)=O)N=O
Test System: CHINESE HAMSTER V-79, Strain/Indicator: V-79/OUABAIN, Metabolic Activation: HAMSTER, HEPATOCYTES, Method: CELL-MEDIATED
  mutagenic call: active; positive

## Cc1c(-c2cnccn2)ssc1=S
Test System: AMES SALMONELLA TYPHIMURIUM, Strain/Indicator: TA98, Metabolic Activation: NONE, Method: STANDARD PLATE
  mutagenic call: inactive; negative
Test System: AMES SALMONELLA TYPHIMURIUM, Strain/Indicator: TA98, Metabolic Activation: RAT, LIVER, S-9, AROCLOR 1254 OR PHENOBARBITOL, Method: STANDARD PLATE
  mutagenic call: inactive; negative
Test System: AMES SALMONELLA TYPHIMURIUM, Strain/Indicator: TA100, Metabolic Activation: NONE, Method: STANDARD PLATE
  mutagenic call: inactive; negative
Test System: AMES SALMONELLA TYPHIMURIUM, Strain/Indicator: TA100, Metabolic Activation: RAT, LIVER, S-9, AROCLOR 1254 OR PHENOBARBITOL, Method: STANDARD PLATE
  mutagenic call: inactive; negative
[1]
  mutagenic call: inactive; negative
Test System: AMES SALMONELLA TYPHIMURIUM, Strain/Indicator: TA1535, Metabolic Activation: RAT, LIVER, S-9, AROCLOR 1254 OR PHENOBARBITOL, Method: STANDARD PLATE
  mutagenic call: inactive; negative
Test System: AMES SALMONELLA TYPHIMURIUM, Strain/Indicator: TA1537, Metabolic Activation: NONE, Method: STANDARD PLATE
  mutagenic call: inactive; negative
Test System: AMES SALMONELLA TYPHIMURIUM, Strain/Indicator: TA1537, Metabolic Activation: RAT, LIVER, S-9, AROCLOR 1254 OR PHENOBARBITOL, Method: STANDARD PLATE
  mutagenic call: inactive; negative
[2]
  mutagenic call: inactive; negative
Test System: AMES SALMONELLA TYPHIMURIUM, Strain/Indicator: TA1538, Metabolic Activation: RAT, LIVER, S-9, AROCLOR 1254 OR PHENOBARBITOL, Method: STANDARD PLATE
  mutagenic call: inactive; negative

## Nc1ccc(-c2ccc(-c3ccc(-c4ccc(N)cc4)cc3)cc2)cc1
[2]
  mutagenic call: inactive; negative
Test System: AMES SALMONELLA TYPHIMURIUM, Strain/Indicator: TA1538, Metabolic Activation: RAT, LIVER, S-9, AROCLOR 1254, Method: STANDARD PLATE
  mutagenic call: inactive; negative

## CC1(c2ccc(-c3ccccc3)cc2)CO1 (configuration not stated)
Test System: AMES SALMONELLA TYPHIMURIUM, Strain/Indicator: TA100, Metabolic Activation: NONE, Method: PREINCUBATION
  mutagenic call: active; positive
